Results published in patent US20260053932A1, “COMPOUNDS AND METHODS FOR THE TARGETED DEGRADATION OF ANDROGEN RECEPTOR AND ASSOCIATED METHODS OF USE” (Arvinas Operations, Inc., priority 2020, published 2026).

What follows are molecules tested on androgen receptor (AR) in LNCaP and/or VCaP cells (assay: Androgen Receptor ELISA assay (AR degradation)). Conditions: LNCaP and/or VCaP cells; 5 hours incubation; media with R1881; read-out: DC50 Code* (degradation of AR ELISA).
Format: cell-based
Procedure, shortened: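 VCaP cells grown ≥3 days, then treated 5 h with compound in media containing 1 nM R1881 (10× stock). Cells lysed and AR quantified by sandwich ELISA (mouse AR detection Ab, HRP anti-mouse, TMB). DC50 and Dmax derived from AR degradation.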

SMILES	DC50
COc1cc(O[C@H]2C[C@H](N(CC3CCN(c4ncc(C(=O)NC5CC6CN(Cc7cc(C)c(C#N)c(C)c7)CC6C5)cn4)CC3)C(C)C)C2)cc2c1C(=O)N(C1CCC(=O)NC1=O)C2=O (some centres unmarked) [Compound 3, N-(2-(4-cyano-3,5-dimethylbenzyl)octahydrocyclopenta [c]pyrrol-5-yl)-2-(4-((((1r,3r)-3-((2-(2,6-dioxopiperidin-3-yl)-7-methoxy-1,3-dioxoisoindolin-5-yl)oxy)cyclobutyl) (isopropyl)amino)methyl)piperidin-1-yl)pyrimidine-5-carboxamide]	> 100 nM
N#Cc1ccc(O[C@H]2CC[C@H](NC(=O)c3cnc(N4CCC(CN(C5COC5)[C@H]5C[C@H](Oc6ccc7c(c6)C(=O)N(C6CCC(=O)NC6=O)C7=O)C5)CC4)cn3)CC2)cc1Cl (some centres unmarked) [Compound 61, N-((1r,4r)-4-(3-chloro-4-cyanophenoxy)cyclohexyl)-5-(4-((((1r,3r)-3-((2-(2,6-dioxopiperidin-3-yl)-1,3-dioxoisoindolin-5-yl)oxy)cyclobutyl) (oxetan-3-yl)amino)methyl)piperidin-1-yl)pyrazine-2-carboxamide]	< 1 nM
CC(C)N(CC1CCN(c2cnc(C(=O)N[C@H]3CC[C@H](Oc4ccc(C#N)c(Cl)c4)CC3)cn2)CC1)[C@H]1CC[C@H](Oc2ccc3c(c2)C(=O)N(C2CCC(=O)NC2=O)C3=O)CC1 (some centres unmarked) [Compound 35, N-((1r,4r)-4-(3-chloro-4-cyanophenoxy)cyclohexyl)-5-(4-((((1r,4r)-4-((2-(2,6-dioxopiperidin-3-yl)-1,3-dioxoisoindolin-5-yl)oxy)cyclohexyl) (isopropyl)amino)methyl)piperidin-1-yl)pyrazine-2-carboxamide]	< 1 nM
COc1cc(O[C@H]2C[C@H](N(CC3CCN(c4ncc(C(=O)N[C@H]5CC[C@H](Oc6cc(C)c(C#N)c(C)c6)C5)cn4)CC3)C(C)C)C2)cc2c1C(=O)N(C1CCC(=O)NC1=O)C2=O (stereo partly drawn) [Compound 5, N-((1S,3S)-3-(4-cyano-3,5-dimethylphenoxy)cyclopentyl)-2-(4-((((1r,3S)-3-((2-(2,6-dioxopiperidin-3-yl)-7-methoxy-1,3-dioxoisoindolin-5-yl)oxy)cyclobutyl) (isopropyl)amino)methyl)piperidin-1-yl)pyrimidine-5-carboxamide]	> 100 nM

Same assay, conditions: degradation of AR ELISA in LNCaP and/or VCaP cells; Table 2C; read-out: DC50 Code*

SMILES	DC50
COc1cc(O[C@H]2C(C)(C)[C@H](NC(=O)c3cnc(N4CCC(CN5CC(Oc6ccc7c(c6)C(=O)N(C6CCC(=O)NC6=O)C7=O)C5)CC4)cn3)C2(C)C)ccc1C#N (some centres unmarked) [compound 93, N-((1r,3r)-3-(4-cyano-3-methoxyphenoxy)-2,2,4,4-tetramethylcyclobutyl)-5-(4-((3-((2-(2,6-dioxopiperidin-3-yl)-1,3-dioxoisoindolin-5-yl)oxy)azetidin-1-yl)methyl)piperidin-1-yl)pyrazine-2-carboxamide]	< 1 nM
COc1c(O[C@H]2C[C@H](N(CC3CCN(c4cnc(C(=O)N[C@H]5C(C)(C)[C@H](Oc6ccc(C#N)c(Cl)c6)C5(C)C)cn4)CC3)C(C)C)C2)ccc2c1CN(C1CCC(=O)NC1=O)C2=O (some centres unmarked) [Compound 227, N-((1r,3r)-3-(3-chloro-4-cyanophenoxy)-2,2,4,4-tetramethylcyclobutyl)-5-(4-((((1r,3r)-3-((2-(2,6-dioxopiperidin-3-yl)-4-methoxy-1-oxoisoindolin-5-yl)oxy)cyclobutyl)(isopropyl)amino)methyl)piperidin-1-yl)pyrazine-2-carboxamide]	< 1 nM
CC1(C)[C@H](NC(=O)c2ccc(N3CCC(CN4CCN(c5ccc6c(c5)C(=O)N(C5(F)CCC(=O)NC5=O)C6=O)CC4)CC3)cc2)C(C)(C)[C@H]1Oc1ccc(C#N)c(Cl)c1 (mixture of isomers) [compound 129, N-((1r,3r)-3-(3-chloro-4-cyanophenoxy)-2,2,4,4-tetramethylcyclobutyl)-4-(4-((4-(2-(3-fluoro-2,6-dioxopiperidin-3-yl)-1,3-dioxoisoindolin-5-yl)piperazin-1-yl)methyl)piperidin-1-yl)benzamide]	1 to 10 nM
CC(C)N(CC1CCN(c2cnc(C(=O)N[C@H]3C(C)(C)[C@H](Oc4ccc(C#N)c(Cl)c4)C3(C)C)cn2)CC1)[C@H]1C[C@H](Oc2ccc3c(c2)C(=O)N(C2CCC(=O)NC2=O)C32CC2)C1 (some centres unmarked) [compound 141, N-((1r,3r)-3-(3-chloro-4-cyanophenoxy)-2,2,4,4-tetramethylcyclobutyl)-5-(4-((((1r,3r)-3-((2′-(2,6-dioxopiperidin-3-yl)-3′-oxospiro[cyclopropane-1,1′-isoindolin]-5′-yl)oxy)cyclobutyl) (isopropyl)amino)methyl)piperidin-1-yl)pyrazine-2-carboxamide]	> 100 nM
Cc1cc(O[C@H]2C(C)(C)[C@H](NC(=O)c3ccc(N4CCC(CN5CCC[C@@H]5COc5ccc6c(c5)C(=O)N(C5CCC(=O)NC5=O)C6=O)CC4)cc3)C2(C)C)cc(C)c1C#N (stereo partly drawn) [compound 193, N-((1r,3R)-3-(4-cyano-3,5-dimethylphenoxy)-2,2,4,4-tetramethylcyclobutyl)-4-(4-(((2R)-2-(((2-(2,6-dioxopiperidin-3-yl)-1,3-dioxoisoindolin-5-yl)oxy)methyl)pyrrolidin-1-yl)methyl)piperidin-1-yl)benzamide]	< 1 nM
Cc1cc(O[C@H]2C(C)(C)[C@H](NC(=O)c3ccc(N4CCC(O[C@H]5C[C@H](Oc6ccc7c(c6)C(=O)N(C6CCC(=O)NC6=O)C7=O)C5)CC4)cc3)C2(C)C)cc(C)c1C#N (mixture of isomers) [compound 178, N-((1r,3r)-3-(4-cyano-3,5-dimethylphenoxy)-2,2,4,4-tetramethylcyclobutyl)-4-(4-((1r,3r)-3-((2-(2,6-dioxopiperidin-3-yl)-1,3-dioxoisoindolin-5-yl)oxy)cyclobutoxy)piperidin-1-yl)benzamide]	< 1 nM
Cc1cc(O[C@H]2C(C)(C)[C@H](NC(=O)c3ccc(N4CCC(CN(C(C)C)[C@H]5C[C@H](Oc6ccc7c(c6)C(=O)N([C@H]6CCC(=O)NC6=O)C7=O)C5)CC4)cc3)C2(C)C)cc(C)c1C#N [compound 205, N-((1r,3r)-3-(4-cyano-3,5-dimethylphenoxy)-2,2,4,4-tetramethylcyclobutyl)-4-(4-((((1S,3r)-3-((2-((S)-2,6-dioxopiperidin-3-yl)-1,3-dioxoisoindolin-5-yl)oxy)cyclobutyl) (isopropyl)amino)methyl)piperidin-1-yl)benzamide]	< 1 nM
[2H]C([2H])([2H])OCCN(CC1CCN(c2ccc(C(=O)N[C@H]3C(C)(C)[C@H](Oc4cc(C)c(C#N)c(C)c4)C3(C)C)cc2)CC1)[C@H]1C[C@H](Oc2cc(OC([2H])([2H])[2H])c3c(c2)C(=O)N(C2CCC(=O)NC2=O)C3=O)C1 (mixture of isomers) [compound 181, rac-N-((1r,3r)-3-(4-cyano-3,5-dimethylphenoxy)-2,2,4,4-tetramethylcyclobutyl)-4-(4-((((1r,3r)-3-((2-(2,6-dioxopiperidin-3-yl)-7-(methoxy-d3)-1,3-dioxoisoindolin-5-yl)oxy)cyclobutyl)(2-(methoxy-d3)ethyl)amino)methyl)piperidin-1-yl)benzamide]	< 1 nM
COCCN(CC1CCN(c2ccc(C(=O)N[C@H]3C(C)(C)[C@H](Oc4cc(C)c(C#N)c(C)c4)C3(C)C)nn2)CC1)[C@H]1C[C@H](Oc2ccc3c(c2)C(=O)N(C2CCC(=O)NC2=O)C3=O)C1 (some centres unmarked) [compound 121, N-((1r,3r)-3-(4-cyano-3,5-dimethylphenoxy)-2,2,4,4-tetramethylcyclobutyl)-6-(4-((((1r,3r)-3-((2-(2,6-dioxopiperidin-3-yl)-1,3-dioxoisoindolin-5-yl)oxy)cyclobutyl)(2-methoxyethyl)amino)methyl)piperidin-1-yl)pyridazine-3-carboxamide]	< 1 nM
COc1cc(O[C@H]2C[C@H](N(CC(F)F)CC3CCN(c4ccc(C(=O)N[C@H]5C(C)(C)[C@H](Oc6ccc(C#N)c(Cl)c6)C5(C)C)cc4)CC3)C2)cc2c1C(=O)N(C1CCC(=O)NC1=O)C2=O (some centres unmarked) [compound 136, N-((1r,3r)-3-(3-chloro-4-cyanophenoxy)-2,2,4,4-tetramethylcyclobutyl)-4-(4-(((2,2-difluoroethyl)((1r,3r)-3-((2-(2,6-dioxopiperidin-3-yl)-7-methoxy-1,3-dioxoisoindolin-5-yl)oxy)cyclobutyl)amino)methyl)piperidin-1-yl)benzamide]	1 to 10 nM
CC1(C)[C@H](NC(=O)c2cnc(N3CCC(CN(CCN4CCOCC4)[C@H]4C[C@H](Oc5ccc6c(c5)C(=O)N(C5CCC(=O)NC5=O)C6=O)C4)CC3)cn2)C(C)(C)[C@H]1Oc1ccc(C#N)c(Cl)c1 (some centres unmarked) [compound 237, N-((1r,3r)-3-(3-chloro-4-cyanophenoxy)-2,2,4,4-tetramethylcyclobutyl)-5-(4-((((1r,3r)-3-((2-(2,6-dioxopiperidin-3-yl)-1,3-dioxoisoindolin-5-yl)oxy)cyclobutyl)(2-morpholinoethyl)amino)methyl)piperidin-1-yl)pyrazine-2-carboxamide]	1 to 10 nM
COc1cc(OCCN2CCOC3(CCN(c4ccc(C(=O)N[C@H]5C(C)(C)[C@H](Oc6cc(C)c(C#N)c(C)c6)C5(C)C)cc4)CC3)C2)cc2c1C(=O)N(C1CCC(=O)NC1=O)C2=O (some centres unmarked) [compound 215, N-((1r,3r)-3-(4-cyano-3,5-dimethylphenoxy)-2,2,4,4-tetramethylcyclobutyl)-4-(4-(2-((2-(2,6-dioxopiperidin-3-yl)-7-methoxy-1,3-dioxoisoindolin-5-yl)oxy)ethyl)-1-oxa-4,9-diazaspiro[5.5]undecan-9-yl)benzamide]	< 1 nM
CCN(CC1CCN(c2ccc(C(=O)N[C@H]3C(C)(C)[C@H](Oc4ccc(C#N)c(OC)c4)C3(C)C)cc2)CC1)[C@H]1C[C@H](Oc2ccc3c(c2)C(=O)N(C2CCC(=O)NC2=O)C3=O)C1 (some centres unmarked) [compound 147, N-((1r,3r)-3-(4-cyano-3-methoxyphenoxy)-2,2,4,4-tetramethylcyclobutyl)-4-(4-((((1r,3r)-3-((2-(2,6-dioxopiperidin-3-yl)-1,3-dioxoisoindolin-5-yl)oxy)cyclobutyl)(ethyl)amino)methyl)piperidin-1-yl)benzamide]	< 1 nM
